Patent publication US6605639B1, “Ligands of nuclear receptor” (Nuclear Receptor Research, Ltd., priority 1998, dated 2003)
Several values for one entry are separate records, joined by “and”; a condition that tells them apart may be missing. Equal entries are not always repeated.

Legend:
[1] = system: patients suffered from noninsulin dependent diabetes (type II); test: Phase II clinical test; type: in vivo, human; settings: for Fasting blood glucose level, Decrease / Serum total cholesterol level, Decrease / Fasting blood glucose level / Serum total cholesterol level: 360 mg/day; for Fasting blood glucose level / Serum total cholesterol level: n = 30, Mean ± SE; for Boredom No, number of patients / Boredom Yes, number of patients: total 15; for Neuralgia No, number of patients / Neuralgia Yes, number of patients: total 16; for Feebleness No, number of patients / Feebleness Yes, number of patients: total 25
Experimental: A phase II clinical test of Compound-6 involving 30 patients suffered from noninsulin dependent diabetes (type II) was carried out. Compound-6 was administered in a daily dose of 6 mg/kg (i.e., administration of two tablets weighing 60 mg after each meal). The administration was continued for 12 weeks.
The facts clarified by this test are as follows.
The 30 patients with type II diabetes were inquired about thirsty and evaluated in 4 grades, namely, (+++) very strongly thirsty; (++) strongly thirsty; (+) thirsty; and (−) not thirsty. […] The treatment ratio amounted to 100%.

[2] = system: db/db mice; test: Long-term oral administration to hereditary obese diabetic mice (pancreas function protecting effect); type: in vivo, mouse
Source text: It has been already supported by the results of several experiments that oral administration of the compounds of the present invention enhances peripheral insulin sensitivity and ameliorates metabolic disorders in db/db mice. It is, however, noteworthy that the compounds of the present invention exert an effect in retaining the function pancreatic synthesis of insulin over a long period, which is defective in diabetes. This effect was clearly indicated by serum insulin level and pathologic observation on pancreas of db/db mice to which Compound-14 had been administered over about 1 year. […] Moreover, Compound-14 ameliorated urinary protein throughout the experimental period. […] Namely, there arose a conversion of non insulin-dependent diabetes mellitus into insulin-dependent diabetes mellitus,analogous to human type II diabetes. Even body weight was reduced to a level similar to that of normal litter after the 40th week, the db/db mice lacking leptin receptor underwent overeating and food energy, which could not be anabolized due to the poverty of insulin, was excreted from the body in a large amount.
Since they lack hereditarily leptin […], db/db mice have no appetite control even at satiety. As a result, they suffer from hyperinsulinemia due to overeating and serious obesity, thereby undergoing the onset of diabetes. The compounds of the present invention were orally administered to db/db mice for 40 weeks (from 11 to 51 weeks after birth) (FIG. 2).
As obesity attained a maximum, insulin requirements exceeded insulin production levels. Thus, pancreatic Langerhans' islet β-cells having insulin depot granules therein were mostly degranulated and there arose insulin depot poverty. The pancreatic Langerhans' islet β-cells having been working severely to produce insulin in excess gradually fatigued. […] From 23rd week after birth, it became impossible to anabolize all of the food energy taken in excess due to the insufficient function of insulin, which induced a decrease in body weight. The food energy which could not be anabolized was excreted as urinary glucose. As a result, the urinary glucose increased with a decrease in the blood insulin level. […] Namely, there arose the conversion of noninsulin-dependent diabetes mellitus into insulin-dependent diabetes mellitus in clinical case of humans. […] However, Compound-14 has no function of restoring leptin receptor and thus exerts no effect on the process of the induction of obesity by hyperinsulinemia due to overeating.
Since pancreatic Langerhans' islet β-cells are of key importance in various aspects of diabetes, the ability of the compound of the present invention to maintain the function of these cells over a long period of time, is very important in terms of the treatment and prevention of diabetes.

[3] = system: db/db mice; test: Calcium metabolism in db/db mice; type: in vivo, mouse; settings: administration for 1 week
Source text: RXR also forms a heterodimer with a nuclear receptor, VDR, which acts with active vitamin D3 (1a,25-dihydrocyvitamin D3) as a ligand. However, no study has been made so far how the formation of this heterodimer means in vivo. Thus the effect of this heterodimer on gene transcription and, in its turn, its physiological meaning still remain unknown. Activated vitamin D3 is essential for bone development and growth in children. Also, it is essential for preventing osteoporosis and bone fracture in aged and sick persons. In spite of such meaningful effects, studies have not been conducted to clarify the function of the heterodimer of VDR with RXR. The inventors studied calcium metabolism in db/db mice and the effect of Compound-14 on the calcium metabolism. This study was partly reported in 1992 (Tomoyoshi Hosokawa, Nogei Kagaku Kai-shi (J. Agr. Chem.), 66:1221-1226, 1992). Compared with normal litter of the same age, db/db mice show abnormally high levels of urinary calcium, blood calcium, blood calcitonin and parathyroid hormone. […] By feeding db/db mice over a long time of period (4 weeks), it was found out that these animals suffered form a decrease in bone mineral density compared with normal litter of the same age. […]

Question: `COc1c(Cl)c(C)c(C=O)c(O)c1C/C=C(C)/C=C/[C@@]1(C)[C@H](C)CCC(=O)[C@@H]1C` [Compound-6, 4-O-methylASC] was tested. Which “Fasting blood glucose level, Decrease” value ([1]; 4th week) did it give?
Answer: The value was 12.37%.

Question: What about the “Serum total cholesterol level, Decrease” value ([1]; 4th week) of the same compound?
Answer: Its value is 16.6%.

Question: And the “Fasting blood glucose level” value ([1]; 4th week)?
Answer: The value was 165 ± 4.3 mg/dL.

Question: And the “Serum total cholesterol level” value ([1]; 4th week)?
Answer: Its value is 265 ± 4.4 mg/dL.

Question: And the “Boredom No, number of patients” value ([1]; 4th week)?
Answer: Its value is 5.

Question: What about the “Boredom Yes, number of patients” value ([1]; 4th week) of the same compound?
Answer: Its value is 10.

Question: And the “Neuralgia No, number of patients” value ([1]; 4th week)?
Answer: Its value is 9.

Question: And the “Neuralgia Yes, number of patients” value ([1]; 4th week)?
Answer: The value was 7.

Question: And the “Feebleness No, number of patients” value ([1]; 4th week)?
Answer: The value was 10.

Question: What about the “Feebleness Yes, number of patients” value ([1]; 4th week) of the same compound?
Answer: Its value is 15.

Question: And the “Fasting blood glucose level, Decrease” value ([1]; 8th week)?
Answer: The value was 15.45%.

Question: And the “Serum total cholesterol level, Decrease” value ([1]; 8th week)?
Answer: The value was 24.3%.

Question: And the “Fasting blood glucose level” value ([1]; 8th week)?
Answer: The value was 159 ± 2.4 mg/dL.

Question: What about the “Serum total cholesterol level” value ([1]; 8th week) of the same compound?
Answer: The value was 240 ± 4.4 mg/dL.

Question: And the “Boredom No, number of patients” value ([1]; 8th week)?
Answer: The value was 13.

Question: And the “Boredom Yes, number of patients” value ([1]; 8th week)?
Answer: The value was 2.

Question: And the “Neuralgia No, number of patients” value ([1]; 8th week)?
Answer: Its value is 10.

Question: What about the “Neuralgia Yes, number of patients” value ([1]; 8th week) of the same compound?
Answer: The value was 6.

Question: And the “Feebleness No, number of patients” value ([1]; 8th week)?
Answer: Its value is 19.

Question: What about the “Feebleness Yes, number of patients” value ([1]; 8th week) of the same compound?
Answer: Its value is 6.

Question: And the “Fasting blood glucose level, Decrease” value ([1]; 12th week)?
Answer: Its value is 18.05%.

Question: What about the “Serum total cholesterol level, Decrease” value ([1]; 12th week) of the same compound?
Answer: Its value is 27.2%.

Question: What about the “Fasting blood glucose level” value ([1]; 12th week) of the same compound?
Answer: The value was 154 ± 4.4 mg/dL.

Question: What about the “Serum total cholesterol level” value ([1]; 12th week) of the same compound?
Answer: The value was 231 ± 4.4 mg/dL.

Question: And the “Boredom No, number of patients” value ([1]; 12th week)?
Answer: Its value is 15.

Question: What about the “Boredom Yes, number of patients” value ([1]; 12th week) of the same compound?
Answer: Its value is 0.

Question: What about the “Neuralgia No, number of patients” value ([1]; 12th week) of the same compound?
Answer: Its value is 14.

Question: And the “Neuralgia Yes, number of patients” value ([1]; 12th week)?
Answer: The value was 2.

Question: And the “Feebleness No, number of patients” value ([1]; 12th week)?
Answer: The value was 24.

Question: What about the “Feebleness Yes, number of patients” value ([1]; 12th week) of the same compound?
Answer: Its value is 1.

Question: What about the “thirst, treatment ratio” value ([1]; 30 patients, 12 weeks) of the same compound?
Answer: The value was 100%.

Question: And the “glucose tolerance (50 g of glucose orally loaded, fasting)” value ([1]; compared with the data before the administration)?
Answer: Its value is “significantly ameliorated”.

Question: What about the “blood pressure of patients with hypertension (7) or borderline hypertension (17)” value ([1]; human, in vivo) of the same compound?
Answer: The value was “significantly lowered”.

Question: What about the “lowering the serum neutral fat level” value ([1]; human, in vivo) of the same compound?
Answer: The value was “little effect”.

Question: And the “urinary glucose, urine collected for 24 hours” value ([1]; human, in vivo)?
Answer: Its value is “significantly reduced”.

Question: `CC(/C=C/[C@@]1(C)[C@H](C)CCC(=O)[C@@H]1C)=C\Cc1c(O)c(C=O)c(C)c(Cl)c1OCC(=O)O` [Compound-14, 4-O-carboxymethylASC] was tested. Which “urinary glucose compared with the control group” value ([2]; 0.1% in feed, oral, 40 weeks (11 to 51 weeks after birth)) did it give?
Answer: Its value is “scarcely excreted into urine and 1/100”.

Question: And the blood glucose level ([2]; 0.1% in feed, oral, about 40 weeks after birth)?
Answer: Its blood glucose level is “almost comparable to normal litter”.

Question: What about the “function of pancreatic β-cells (insulin productivity)” value ([2]; long-term oral administration, about 1 year) of the same compound?
Answer: The value was “completely sustained over 1 year”.

Question: And the urinary protein ([2]; throughout the experimental period)?
Answer: Its urinary protein is “ameliorated”.

Question: What about the “urinary calcium, blood calcium and calcitonin levels” value [3] of the same compound?
Answer: The value was “significantly lowered”.
